Legend:
Assay in all cases: Preservative/disinfectant system efficacy testing (log reduction)
Type in all cases: cell-based
[1] = test system: Fusarium solani (ATCC 36031)
Protocol: (§1) The ophthalmic compositions are evaluated in accordance with specific procedures outlined by the US Food & Drug Administration and the International Organization for Standardization for the testing of microbiocidal efficacy.

[2] = test system: Pseudomonas aeruginosa (ATCC 9027)
Protocol: as §1

[3] = test system: Staphylococcus aureus (ATCC 6538)
Protocol: as §1

[4] = test system: Serratia marcescens (ATCC 13880)
Protocol: as §1

[5] = 1 hr, Table 5A multi-purpose lens care solution, 10% organic soil, disinfectant concentrations as in label
[6] = 1 hr, phosphate buffered saline, 10% organic soil, concentrations as in label (Table 4)
[7] = 4 hr, Table 5A multi-purpose lens care solution, 10% organic soil, disinfectant concentrations as in label
[8] = 4 hr, phosphate buffered saline, 10% organic soil, concentrations as in label (Table 4)
[9] = EHOPD 0.0001 wt %, 1 hr, borate buffered saline, 10% organic soil
[10] = EHOPD 0.0001 wt %, 1 hr, phosphate buffered saline, 10% Organic Soil
[11] = EHOPD 0.0001 wt %, 4 hr, borate buffered saline, 10% organic soil
[12] = EHOPD 0.0001 wt %, 4 hr, phosphate buffered saline, 10% Organic Soil
[13] = EHOPD 0.001 wt %, 1 hr, borate buffered saline, 10% organic soil
[14] = EHOPD 0.001 wt %, 1 hr, phosphate buffered saline, 10% Organic Soil
[15] = EHOPD 0.001 wt %, 4 hr, borate buffered saline, 10% organic soil
[16] = EHOPD 0.001 wt %, 4 hr, phosphate buffered saline, 10% Organic Soil
[17] = EHOPD 0.01 wt %, 1 hr, Table 3A multi-purpose lens care formulation, 10% organic soil
[18] = EHOPD 0.01 wt %, 1 hr, borate buffered saline, 10% organic soil
[19] = EHOPD 0.01 wt %, 1 hr, phosphate buffered saline, 10% Organic Soil
[20] = EHOPD 0.01 wt %, 4 hr, Table 3A multi-purpose lens care formulation, 10% organic soil
[21] = EHOPD 0.01 wt %, 4 hr, borate buffered saline, 10% organic soil
[22] = EHOPD 0.01 wt %, 4 hr, phosphate buffered saline, 10% Organic Soil
[23] = EHOPD 0.1 wt %, 1 hr, Table 3A multi-purpose lens care formulation, 10% organic soil
[24] = EHOPD 0.1 wt %, 1 hr, borate buffered saline, 10% organic soil
[25] = EHOPD 0.1 wt %, 1 hr, phosphate buffered saline, 10% Organic Soil
[26] = EHOPD 0.1 wt %, 4 hr, Table 3A multi-purpose lens care formulation, 10% organic soil
[27] = EHOPD 0.1 wt %, 4 hr, borate buffered saline, 10% organic soil
[28] = EHOPD 0.1 wt %, 4 hr, phosphate buffered saline, 10% Organic Soil
[29] = EHOPD 0.15 wt %, 1 hr, Table 3A multi-purpose lens care formulation, 10% organic soil
[30] = EHOPD 0.15 wt %, 4 hr, Table 3A multi-purpose lens care formulation, 10% organic soil
[31] = EHOPD 0.25 wt %, 1 hr, Table 3A multi-purpose lens care formulation, 10% organic soil
[32] = EHOPD 0.25 wt %, 4 hr, Table 3A multi-purpose lens care formulation, 10% organic soil
[33] = EHOPD 0.50 wt %, 1 hr, Table 3A multi-purpose lens care formulation, 10% organic soil
[34] = EHOPD 0.5 wt %, 1 hr, borate buffered saline, 10% organic soil
[35] = EHOPD 0.5 wt %, 1 hr, phosphate buffered saline, 10% Organic Soil
[36] = EHOPD 0.50 wt %, 4 hr, Table 3A multi-purpose lens care formulation, 10% organic soil
[37] = EHOPD 0.5 wt %, 4 hr, borate buffered saline, 10% organic soil
[38] = EHOPD 0.5 wt %, 4 hr, phosphate buffered saline, 10% Organic Soil
[39] = EHOPD 0.75 wt %, 1 hr, Table 3A multi-purpose lens care formulation, 10% organic soil
[40] = EHOPD 0.75 wt %, 4 hr, Table 3A multi-purpose lens care formulation, 10% organic soil
[41] = EHOPD 1.0 wt %, 1 hr, Table 3A multi-purpose lens care formulation, 10% organic soil
[42] = EHOPD 1.0 wt %, 4 hr, Table 3A multi-purpose lens care formulation, 10% organic soil

For `CCCCC(CC)COCC(O)CO` (centres unmarked) [EHOPD, 3-[(2-ethylhexyl)oxy]-1,2-propanediol], the “log reduction F. solani” value [1, 5] was 3.1, the “log reduction F. solani” value [1, 6] was 2.5 and the “log reduction F. solani” value [1, 7] was 5.0. The “log reduction F. solani” value [1, 8] was 5.0, the “log reduction F. solani” value [1, 9] was 1.3 and the “log reduction F. solani” value [1, 10] was 2.3. For the same molecule, the “log reduction F. solani” value [1, 11] was 2.1, the “log reduction F. solani” value [1, 12] was 2.3 and the “log reduction F. solani” value [1, 13] was 1.9. For the same molecule, the “log reduction F. solani” value [1, 14] was 1.8, the “log reduction F. solani” value [1, 15] was 1.9 and the “log reduction F. solani” value [1, 16] was 2.9. For the same molecule, the “log reduction F. solani” value [1, 17] was 0.3, the “log reduction F. solani” value [1, 18] was 2.4 and the “log reduction F. solani” value [1, 19] was 3.6. For the same molecule, the “log reduction F. solani” value [1, 20] was 0.5, the “log reduction F. solani” value [1, 21] was greater than 5.8 and the “log reduction F. solani” value [1, 22] was greater than 5.8. The “log reduction F. solani” value [1, 23] was 0.3, the “log reduction F. solani” value [1, 24] was greater than 5.8 and the “log reduction F. solani” value [1, 25] was greater than 5.8. The “log reduction F. solani” value [1, 26] was 0.5, the “log reduction F. solani” value [1, 27] was greater than 5.8 and the “log reduction F. solani” value [1, 28] was greater than 5.8. For the same molecule, the “log reduction F. solani” value [1, 29] was 0.5, the “log reduction F. solani” value [1, 30] was greater than 4.7 and the “log reduction F. solani” value [1, 31] was 0.8. The “log reduction F. solani” value [1, 32] was greater than 4.7, the “log reduction F. solani” value [1, 33] was greater than 4.7 and the “log reduction F. solani” value [1, 34] was greater than 5.8. The “log reduction F. solani” value [1, 35] was greater than 5.8, the “log reduction F. solani” value [1, 36] was greater than 4.7 and the “log reduction F. solani” value [1, 37] was greater than 5.8. For the same molecule, the “log reduction F. solani” value [1, 38] was greater than 5.8, the “log reduction F. solani” value [1, 39] was greater than 4.7 and the “log reduction F. solani” value [1, 40] was greater than 4.7. For the same molecule, the “log reduction F. solani” value [1, 41] was greater than 4.7, the “log reduction F. solani” value [1, 42] was greater than 4.7 and the “log reduction P. aeruginosa” value [2, 5] was 1.4. For the same molecule, the “log reduction P. aeruginosa” value [2, 6] was 1.5, the “log reduction P. aeruginosa” value [2, 7] was 1.4 and the “log reduction P. aeruginosa” value [2, 8] was 1.5. The “log reduction P. aeruginosa” value [2, 9] was 1.5, the “log reduction P. aeruginosa” value [2, 10] was 1.5 and the “log reduction P. aeruginosa” value [2, 11] was 1.5. For the same molecule, the “log reduction P. aeruginosa” value [2, 12] was 1.5, the “log reduction P. aeruginosa” value [2, 13] was 1.5 and the “log reduction P. aeruginosa” value [2, 14] was 1.5. For the same molecule, the “log reduction P. aeruginosa” value [2, 15] was 1.5, the “log reduction P. aeruginosa” value [2, 16] was 1.5 and the “log reduction P. aeruginosa” value [2, 17] was 1.9. For the same molecule, the “log reduction P. aeruginosa” value [2, 18] was 2.6, the “log reduction P. aeruginosa” value [2, 19] was 1.5 and the “log reduction P. aeruginosa” value [2, 20] was 1.9. The “log reduction P. aeruginosa” value [2, 21] was greater than 5.0, the “log reduction P. aeruginosa” value [2, 22] was 1.5 and the “log reduction P. aeruginosa” value [2, 23] was greater than 5.4. The “log reduction P. aeruginosa” value [2, 24] was greater than 5.0, the “log reduction P. aeruginosa” value [2, 25] was 1.5 and the “log reduction P. aeruginosa” value [2, 26] was greater than 5.4. For the same molecule, the “log reduction P. aeruginosa” value [2, 27] was greater than 5.0, the “log reduction P. aeruginosa” value [2, 28] was 3.7 and the “log reduction P. aeruginosa” value [2, 29] was greater than 5.4. For the same molecule, the “log reduction P. aeruginosa” value [2, 30] was greater than 5.4, the “log reduction P. aeruginosa” value [2, 31] was greater than 5.4 and the “log reduction P. aeruginosa” value [2, 32] was greater than 5.4. The “log reduction P. aeruginosa” value [2, 33] was greater than 5.4, the “log reduction P. aeruginosa” value [2, 34] was greater than 5.0 and the “log reduction P. aeruginosa” value [2, 35] was 1.5. For the same molecule, the “log reduction P. aeruginosa” value [2, 36] was greater than 5.4, the “log reduction P. aeruginosa” value [2, 37] was greater than 5.0 and the “log reduction P. aeruginosa” value [2, 38] was 4.1. For the same molecule, the “log reduction P. aeruginosa” value [2, 39] was greater than 5.4, the “log reduction P. aeruginosa” value [2, 40] was greater than 5.4 and the “log reduction P. aeruginosa” value [2, 41] was greater than 5.4. The “log reduction P. aeruginosa” value [2, 42] was greater than 5.4, the “log reduction S. aureus” value [3, 5] was 1.2 and the “log reduction S. aureus” value [3, 6] was 1.2. For the same molecule, the “log reduction S. aureus” value [3, 7] was 1.2, the “log reduction S. aureus” value [3, 8] was 1.3 and the “log reduction S. aureus” value [3, 9] was 1.4. For the same molecule, the “log reduction S. aureus” value [3, 10] was 1.4, the “log reduction S. aureus” value [3, 11] was 1.4 and the “log reduction S. aureus” value [3, 12] was 1.4. The “log reduction S. aureus” value [3, 13] was 1.4, the “log reduction S. aureus” value [3, 14] was 1.4 and the “log reduction S. aureus” value [3, 15] was 1.4. The “log reduction S. aureus” value [3, 16] was 1.4, the “log reduction S. aureus” value [3, 17] was 1.4 and the “log reduction S. aureus” value [3, 18] was 1.4. The “log reduction S. aureus” value [3, 19] was 1.4, the “log reduction S. aureus” value [3, 20] was 1.4 and the “log reduction S. aureus” value [3, 21] was 1.4. The “log reduction S. aureus” value [3, 22] was 1.4, the “log reduction S. aureus” value [3, 23] was 1.4 and the “log reduction S. aureus” value [3, 24] was 1.7. For the same molecule, the “log reduction S. aureus” value [3, 25] was 1.4, the “log reduction S. aureus” value [3, 26] was 1.4 and the “log reduction S. aureus” value [3, 27] was 4.0. For the same molecule, the “log reduction S. aureus” value [3, 28] was 3.0, the “log reduction S. aureus” value [3, 29] was 1.4 and the “log reduction S. aureus” value [3, 30] was 1.4. For the same molecule, the “log reduction S. aureus” value [3, 31] was 1.4, the “log reduction S. aureus” value [3, 32] was 1.4 and the “log reduction S. aureus” value [3, 33] was 1.4. The “log reduction S. aureus” value [3, 34] was 1.8, the “log reduction S. aureus” value [3, 35] was 1.4 and the “log reduction S. aureus” value [3, 36] was 1.8. For the same molecule, the “log reduction S. aureus” value [3, 37] was 4.3, the “log reduction S. aureus” value [3, 38] was 3.1 and the “log reduction S. aureus” value [3, 39] was 1.6. The “log reduction S. aureus” value [3, 40] was 3.1, the “log reduction S. aureus” value [3, 41] was 2.2 and the “log reduction S. aureus” value [3, 42] was 3.7. The “log reduction S. marcescens” value [4, 5] was 2.3, the “log reduction S. marcescens” value [4, 6] was 3.0 and the “log reduction S. marcescens” value [4, 7] was 3.3. For the same molecule, the “log reduction S. marcescens” value [4, 8] was 3.9, the “log reduction S. marcescens” value [4, 9] was 1.7 and the “log reduction S. marcescens” value [4, 10] was 1.7. The “log reduction S. marcescens” value [4, 11] was 1.7, the “log reduction S. marcescens” value [4, 12] was 1.7 and the “log reduction S. marcescens” value [4, 13] was 1.7. For the same molecule, the “log reduction S. marcescens” value [4, 14] was 1.7, the “log reduction S. marcescens” value [4, 15] was 1.7 and the “log reduction S. marcescens” value [4, 16] was 3.2. For the same molecule, the “log reduction S. marcescens” value [4, 17] was 2.0, the “log reduction S. marcescens” value [4, 18] was 1.7 and the “log reduction S. marcescens” value [4, 19] was greater than 5.2. For the same molecule, the “log reduction S. marcescens” value [4, 20] was 2.0, the “log reduction S. marcescens” value [4, 21] was 1.7 and the “log reduction S. marcescens” value [4, 22] was greater than 5.2. The “log reduction S. marcescens” value [4, 23] was 2.0, the “log reduction S. marcescens” value [4, 24] was 4.8 and the “log reduction S. marcescens” value [4, 25] was greater than 5.2. For the same molecule, the “log reduction S. marcescens” value [4, 26] was 2.0, the “log reduction S. marcescens” value [4, 27] was greater than 5.2 and the “log reduction S. marcescens” value [4, 28] was greater than 5.2. For the same molecule, the “log reduction S. marcescens” value [4, 29] was 2.0, the “log reduction S. marcescens” value [4, 30] was 4.7 and the “log reduction S. marcescens” value [4, 31] was greater than 5.4. The “log reduction S. marcescens” value [4, 32] was greater than 5.4, the “log reduction S. marcescens” value [4, 33] was greater than 5.4 and the “log reduction S. marcescens” value [4, 34] was 4.9. For the same molecule, the “log reduction S. marcescens” value [4, 35] was greater than 5.2, the “log reduction S. marcescens” value [4, 36] was greater than 5.4 and the “log reduction S. marcescens” value [4, 37] was greater than 5.2. The “log reduction S. marcescens” value [4, 38] was greater than 5.2, the “log reduction S. marcescens” value [4, 39] was greater than 5.4 and the “log reduction S. marcescens” value [4, 40] was greater than 5.4. The “log reduction S. marcescens” value [4, 41] was greater than 5.4 and the “log reduction S. marcescens” value [4, 42] was greater than 5.4.
